Measured values published in PubChem BioAssay AID1963434 (Molecular Pharmacology Branch, DTP, NCI, 2024).
Where “and” joins values, the source holds several entries; their conditions need not be identical. Equal entries are not always repeated.

System: 755483-174-R-J1-PDC complex spheroid growth, percent test/control
Test: Anticancer human tumor 755483-174-R-J1-PDC patient-derived rhabdomyosarcoma cell line growth inhibition [Asc]
Conditions: for viability, T/C: stronger effect = lower value
Procedure, shortened: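 Concentration series start at each agent's clinical Cmax, or at 10 microM when none is established, and drop in half-log steps; agents are applied alone or together to complex spheroids built with HUVEC and hMSC.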
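Note: spheroids exposed to compounds for seven days before readout.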

## Cn1ncnc1[C@H]1c2n[nH]c(=O)c3cc(F)cc(c23)N[C@@H]1c1ccc(F)cc1
Compound 0.000316 µM
  viability, T/C: 88.4% and 89% and 81.2%
Compound 0.001 µM
  viability, T/C: 83.4% and 79.9% and 66.1%
Compound 0.00316 µM
  viability, T/C: 84.2% and 86.5% and 53.9%
Compound 0.01 µM
  viability, T/C: 74.4% and 58.5% and 52.2%
Compound 0.0316 µM
  viability, T/C: 50.1% and 45.9% and 31.2%
Compound 0.1 µM
  viability, T/C: 41.2% and 38.3% and 23.1%
Curve of compound
  IC50: 32.7 nM and 18.1 nM and 6.39 nM

## O=C(c1cc(Cc2n[nH]c(=O)c3ccccc23)ccc1F)N1CCN(C(=O)C2CC2)CC1 + CCN1C(C(=O)NC23CCC(C(=O)O)(CC2)CC3)C(c2cccc(Cl)c2F)C2(C(=O)Nc3cc(Cl)ccc32)C12CCCCC2
Curve of first compound, second compound 0.03 µM
  IC50: 1700 nM
Curve of first compound, second compound 0.0949 µM
  IC50: 2560 nM
Curve of first compound, second compound 0.3 µM
  IC50: 1610 nM
Curve of first compound, second compound 0.949 µM
  IC50: 1570 nM
Curve of first compound, second compound 3 µM
  IC50: 1110 nM
Second compound 0.03 µM, first compound 0.0316 µM
  viability, T/C: 58.3%
Second compound 0.03 µM, first compound 0.1 µM
  viability, T/C: 60.6%
Second compound 0.03 µM, first compound 0.316 µM
  viability, T/C: 68.3%
Second compound 0.03 µM, first compound 1 µM
  viability, T/C: 48.4%
Second compound 0.03 µM, first compound 3.16 µM
  viability, T/C: 46%
Second compound 0.03 µM, first compound 10 µM
  viability, T/C: 23.4%
Second compound 0.0949 µM, first compound 0.0316 µM
  viability, T/C: 79.4%
Second compound 0.0949 µM, first compound 0.1 µM
  viability, T/C: 77%
Second compound 0.0949 µM, first compound 0.316 µM
  viability, T/C: 72%
Second compound 0.0949 µM, first compound 1 µM
  viability, T/C: 64.3%
Second compound 0.0949 µM, first compound 3.16 µM
  viability, T/C: 46.5%
Second compound 0.0949 µM, first compound 10 µM
  viability, T/C: 26.1%
Second compound 0.3 µM, first compound 0.0316 µM
  viability, T/C: 80.3%
Second compound 0.3 µM, first compound 0.1 µM
  viability, T/C: 63%
Second compound 0.3 µM, first compound 0.316 µM
  viability, T/C: 55.8%
Second compound 0.3 µM, first compound 1 µM
  viability, T/C: 57.7%
Second compound 0.3 µM, first compound 3.16 µM
  viability, T/C: 52%
Second compound 0.3 µM, first compound 10 µM
  viability, T/C: 28.6%
Second compound 0.949 µM, first compound 0.0316 µM
  viability, T/C: 86.2%
Second compound 0.949 µM, first compound 0.1 µM
  viability, T/C: 69.2%
Second compound 0.949 µM, first compound 0.316 µM
  viability, T/C: 66%
Second compound 0.949 µM, first compound 1 µM
  viability, T/C: 58.4%
Second compound 0.949 µM, first compound 3.16 µM
  viability, T/C: 44.2%
Second compound 0.949 µM, first compound 10 µM
  viability, T/C: 20.9%
Second compound 3 µM, first compound 0.0316 µM
  viability, T/C: 71.3%
Second compound 3 µM, first compound 0.1 µM
  viability, T/C: 70.8%
Second compound 3 µM, first compound 0.316 µM
  viability, T/C: 50%
Second compound 3 µM, first compound 1 µM
  viability, T/C: 49.5%
Second compound 3 µM, first compound 3.16 µM
  viability, T/C: 51.4%
Second compound 3 µM, first compound 10 µM
  viability, T/C: 27.5%

## Cn1ncnc1[C@H]1c2n[nH]c(=O)c3cc(F)cc(c23)N[C@@H]1c1ccc(F)cc1 + Cc1c(S(C)(=O)=O)c(-c2cc(F)cc(N3CCN(c4ccc(NS(=O)(=O)c5ccc(NC(CCN6CCC(C(=O)OCCCP(=O)(O)O)CC6)CSc6ccccc6)c(S(=O)(=O)C(F)(F)F)c5)cc4)CC3)c2)c(-c2ccc(Cl)cc2)n1C(C)C
Curve of first compound, second compound 0.1 µM
  IC50: 1.85 nM
Curve of first compound, second compound 0.316 µM
  IC50: < 0.316 nM
Curve of first compound, second compound 1 µM
  IC50: < 0.316 nM
Curve of first compound, second compound 3.16 µM
  IC50: < 0.316 nM
Curve of first compound, second compound 10 µM
  IC50: < 0.316 nM
Second compound 0.1 µM, first compound 0.000316 µM
  viability, T/C: 50.8%
Second compound 0.1 µM, first compound 0.001 µM
  viability, T/C: 50.7%
Second compound 0.1 µM, first compound 0.00316 µM
  viability, T/C: 49.3%
Second compound 0.1 µM, first compound 0.01 µM
  viability, T/C: 30.7%
Second compound 0.1 µM, first compound 0.0316 µM
  viability, T/C: 28.1%
Second compound 0.1 µM, first compound 0.1 µM
  viability, T/C: 35%
Second compound 0.316 µM, first compound 0.000316 µM
  viability, T/C: 46.2%
Second compound 0.316 µM, first compound 0.001 µM
  viability, T/C: 41%
Second compound 0.316 µM, first compound 0.00316 µM
  viability, T/C: 34.7%
Second compound 0.316 µM, first compound 0.01 µM
  viability, T/C: 38.1%
Second compound 0.316 µM, first compound 0.0316 µM
  viability, T/C: 25%
Second compound 0.316 µM, first compound 0.1 µM
  viability, T/C: 30.3%
Second compound 1 µM, first compound 0.000316 µM
  viability, T/C: 38.2%
Second compound 1 µM, first compound 0.001 µM
  viability, T/C: 32.1%
Second compound 1 µM, first compound 0.00316 µM
  viability, T/C: 35%
Second compound 1 µM, first compound 0.01 µM
  viability, T/C: 34%
Second compound 1 µM, first compound 0.0316 µM
  viability, T/C: 23.7%
Second compound 1 µM, first compound 0.1 µM
  viability, T/C: 21.6%
Second compound 3.16 µM, first compound 0.000316 µM
  viability, T/C: 38%
Second compound 3.16 µM, first compound 0.001 µM
  viability, T/C: 39.3%
Second compound 3.16 µM, first compound 0.00316 µM
  viability, T/C: 24.7%
Second compound 3.16 µM, first compound 0.01 µM
  viability, T/C: 18.6%
Second compound 3.16 µM, first compound 0.0316 µM
  viability, T/C: 19.2%
Second compound 3.16 µM, first compound 0.1 µM
  viability, T/C: 18.8%
Second compound 10 µM, first compound 0.000316 µM
  viability, T/C: 32.6%
Second compound 10 µM, first compound 0.001 µM
  viability, T/C: 39.4%
Second compound 10 µM, first compound 0.00316 µM
  viability, T/C: 32.9%
Second compound 10 µM, first compound 0.01 µM
  viability, T/C: 29.5%
Second compound 10 µM, first compound 0.0316 µM
  viability, T/C: 16.7%
Second compound 10 µM, first compound 0.1 µM
  viability, T/C: 15.7%
